Read-outs that look alike come from different tables or passages of the source.
Columns and labels:
C. difficile CamA = molecular target: T1, C. difficile CamA (Clostridioides difficile, UniProt Q183J3); test: CamA methylation inhibition assay; assay type: biochemical; settings: for Relative inhibition of CamA activity at a single inhibitor concentration: 50 μM inhibitor
T1 sequence (Q183J3 1-577): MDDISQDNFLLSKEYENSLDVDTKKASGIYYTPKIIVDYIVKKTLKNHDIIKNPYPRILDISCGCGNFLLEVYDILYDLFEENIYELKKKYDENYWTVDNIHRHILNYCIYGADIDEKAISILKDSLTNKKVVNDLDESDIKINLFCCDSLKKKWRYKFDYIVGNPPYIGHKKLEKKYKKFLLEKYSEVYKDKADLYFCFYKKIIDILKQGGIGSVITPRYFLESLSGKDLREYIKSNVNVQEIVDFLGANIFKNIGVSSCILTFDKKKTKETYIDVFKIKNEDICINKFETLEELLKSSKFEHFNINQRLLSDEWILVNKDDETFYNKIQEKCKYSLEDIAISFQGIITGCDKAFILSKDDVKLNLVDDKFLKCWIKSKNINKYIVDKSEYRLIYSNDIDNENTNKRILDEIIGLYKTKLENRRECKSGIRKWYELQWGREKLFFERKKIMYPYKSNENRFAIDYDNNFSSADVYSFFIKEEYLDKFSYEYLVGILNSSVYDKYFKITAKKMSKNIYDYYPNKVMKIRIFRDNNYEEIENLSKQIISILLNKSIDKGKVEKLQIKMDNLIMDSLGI

CamA [1] = molecular target: T2, CamA (Clostridioides difficile, UniProt Q183J3); test: ITC binding of inhibitors to CamA
T2 sequence (Q183J3 1-577): T1 sequence (Q183J3 1-577)

E. coli Dam = settings: read-out: Km of SAM for E. coli Dam; cited from earlier work
CamA [2] = molecular target: T2, CamA; settings: cited from earlier work
phage T4 Dam = settings: read-out: Km of SAM for phage T4 Dam; cited from earlier work
M.TaqI = settings: read-out: KD of SAM for M.TaqI; cited from earlier work
PRMT7 = settings: read-out: IC50 PRMT7 activity; cited from earlier work
[3] = system: four human RNA adenine MTases and two bacterial DNA adenine MTases; test: Selectivity: in vitro inhibition of other class I MTases; assay type: biochemical; settings: four human RNA adenine MTases and two bacterial DNA adenine MTases (Figure 5)
[4] = molecular target: T3, CamA (DNA adenine methyltransferase, plasmid pXC2184) (Clostridioides difficile, UniProt Q183J3 1-577); test: X-ray crystallography
T3 sequence: T1 sequence (Q183J3 1-577)

In the case of `CC(C)N(CCCNC(=O)Nc1ccc(C(C)(C)C)cc1)C[C@H]1O[C@@H](n2ccc3c(N)ncnc32)[C@H](O)[C@@H]1O` [EPZ004777], the “Relative inhibition of CamA activity at a single inhibitor concentration” value (“Relative inhibition of CamA activity” for short) (C. difficile CamA) is reported as “notable inhibition”.

For `CC(C)N(C[C@H]1O[C@@H](n2cnc3c(N)ncnc32)[C@H](O)[C@@H]1O)[C@H]1C[C@@H](CCc2nc3cc(C(C)(C)C)ccc3[nH]2)C1` [EPZ5676, pinometostat], the Kd (CamA [1]) was over 50 µM, the IC50 (C. difficile CamA) was over 250 µM and the “Relative inhibition of CamA activity” value (C. difficile CamA) was “failed to inhibit CamA”.

In the case of `Nc1ncnc2c1ccn2[C@@H]1O[C@H]([C@H](O)c2ccccc2)[C@@H](O)[C@H]1O` [LLY-283], the “Relative inhibition of CamA activity” value (C. difficile CamA) is reported as “much weaker inhibition than sinefungin”.

For `C[S+](CC[C@H](N)C(=O)[O-])C[C@H]1O[C@@H](n2cnc3c(N)ncnc32)[C@H](O)[C@@H]1O` (stereo partly drawn) [SAM, S-adenosyl-L-methionine], the Km (E. coli Dam) is listed as 3 to 6 µM, the Kd (CamA [2]; read-out: KD of SAM binding by CamA) is listed as 35 µM and the Km (CamA [2]; read-out: Km of SAM for CamA) is listed as over 17 µM. For the same molecule, the Km (phage T4 Dam) was 0.5 µM and the Kd (M.TaqI) was 2 µM.

In the case of `NCCCSC[C@H]1O[C@@H](n2cnc3c(N)ncnc32)[C@H](O)[C@@H]1O` [SGC0911], the IC50 (PRMT7) is listed as 1 µM.

With `CC(C)N(CCCNC(=O)Nc1ccc(C(C)(C)C)cc1)C[C@H]1O[C@@H](n2cc(Br)c3c(N)ncnc32)[C@H](O)[C@@H]1O` [SGC0946] the Kd (CamA [1]) was 6.3 µM, the “Fold stronger binding to CamA (KD) than EPZ004777” value (CamA [1]; SGC0946 vs. EPZ004777) was ~ 3 X and the “in vitro inhibition against six distinct MTase enzymes” value [3] was ~ 50%. The IC50 (C. difficile CamA) was 4.7 µM, the “Relative inhibition of CamA activity” value (C. difficile CamA) was “notable inhibition” and the “Fold more potent inhibition of CamA (IC50) than EPZ004777” value (C. difficile CamA; SGC0946 vs. EPZ004777) was ~ 9 X.

In the case of `CC1=C(C)C(=O)C(C(C)(C)CC(=O)N(CCCCSC[C@H]2O[C@@H](n3cnc4c(N)ncnc43)[C@H](O)[C@@H]2O)Cc2cccc(-c3ccc(Cl)cc3)c2)=C(C)C1=O` [SGC3027], the “Relative inhibition of CamA activity” value (C. difficile CamA) is reported as “does not possess in vitro inhibitory activity”.

B1: 14-bp CamA co-crystallization duplex (dsDNA)
DNA 1: TTCAAAAAGTCCCA
DNA 2: ATGGGACTTTTTGA
B1: binds [4].

Source: publication PMC9487755 (Epigenetics, 2021)
